Data published in patent US8461328B2, “Tricyclic heterocyclic compounds, compositions and methods of use thereof” (Genentech, Inc., priority 2010, dated 2013).

What was measured:
Format in all cases: biochemical
JAK3 = biological target: T1, JAK3 (Homo sapiens, UniProt P52333); assay: JAK3 inhibition (Table 4); conditions: read-out: JAK3 Ki
T1 construct: made in house; host or cells: SF9 insect cells (baculovirus)

JAK2 = biological target: T2, JAK2 (Homo sapiens, UniProt O60674); assay: JAK2 inhibition (Table 4); conditions: read-out: JAK2 Ki
T2 construct: made in house; host or cells: SF9 insect cells (baculovirus)
T2 sequence (O60674 812-1132): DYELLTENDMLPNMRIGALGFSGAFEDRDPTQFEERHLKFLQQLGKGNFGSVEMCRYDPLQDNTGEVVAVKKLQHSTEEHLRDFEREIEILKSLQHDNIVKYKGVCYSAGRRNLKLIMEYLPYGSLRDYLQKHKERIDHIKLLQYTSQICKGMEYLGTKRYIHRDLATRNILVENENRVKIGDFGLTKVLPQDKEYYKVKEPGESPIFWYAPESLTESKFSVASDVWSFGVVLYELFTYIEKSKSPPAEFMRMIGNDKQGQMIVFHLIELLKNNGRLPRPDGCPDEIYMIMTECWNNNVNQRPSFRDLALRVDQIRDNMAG

TYK2 = biological target: T3, TYK2 (Homo sapiens, UniProt P29597); assay: TYK2 inhibition (Table 4)
T3 construct: made in house; host or cells: SF9 insect cells (baculovirus)
T3 sequence (P29597 873-1187): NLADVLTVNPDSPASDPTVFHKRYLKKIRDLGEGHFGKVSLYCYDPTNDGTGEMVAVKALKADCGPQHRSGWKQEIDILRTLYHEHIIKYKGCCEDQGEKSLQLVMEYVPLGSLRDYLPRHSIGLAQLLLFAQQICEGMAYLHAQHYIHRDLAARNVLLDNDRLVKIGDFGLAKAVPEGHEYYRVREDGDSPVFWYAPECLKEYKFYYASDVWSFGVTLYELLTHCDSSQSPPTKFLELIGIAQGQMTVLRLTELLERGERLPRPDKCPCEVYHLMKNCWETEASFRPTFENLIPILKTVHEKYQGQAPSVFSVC

JAK1 = biological target: T4, JAK1 (Homo sapiens, UniProt P23458); assay: JAK1 inhibition (Table 4); conditions: read-out: JAK1 Ki
T4 construct: made in house; host or cells: SF9 insect cells (baculovirus)
T4 sequence (P23458 852-1154): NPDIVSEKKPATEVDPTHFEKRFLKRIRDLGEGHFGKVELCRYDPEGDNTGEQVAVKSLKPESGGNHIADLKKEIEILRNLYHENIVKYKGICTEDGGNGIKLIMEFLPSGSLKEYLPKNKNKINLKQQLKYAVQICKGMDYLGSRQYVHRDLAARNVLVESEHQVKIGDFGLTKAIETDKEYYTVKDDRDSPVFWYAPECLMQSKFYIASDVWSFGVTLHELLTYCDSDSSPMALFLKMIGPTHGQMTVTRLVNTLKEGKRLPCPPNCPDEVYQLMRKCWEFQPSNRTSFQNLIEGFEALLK

T1 sequence (P52333 783-1124): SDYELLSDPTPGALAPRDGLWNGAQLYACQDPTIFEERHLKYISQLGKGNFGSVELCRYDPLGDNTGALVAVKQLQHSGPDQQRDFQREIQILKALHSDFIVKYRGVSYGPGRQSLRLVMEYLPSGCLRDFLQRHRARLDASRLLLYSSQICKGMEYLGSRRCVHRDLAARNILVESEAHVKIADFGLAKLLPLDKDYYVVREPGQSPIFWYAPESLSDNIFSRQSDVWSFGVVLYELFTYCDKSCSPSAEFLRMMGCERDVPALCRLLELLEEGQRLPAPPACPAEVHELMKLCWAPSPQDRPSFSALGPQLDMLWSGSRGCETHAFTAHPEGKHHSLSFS

SMILES | Ki (JAK3) | Ki (JAK2) | Ki (TYK2) | Ki (JAK1)
O=C(c1cccnc1)N1CCC(n2cnc3cnc4[nH]ccc4c32)CC1 [Example 34, Pyridin-3-yl-[4-(6H-1,3,5,6-tetraaza-as-indacen-1-yl)-piperidin-1-yl]methanone] | 1070 nM | 63.1 nM | 423 nM | 31.5 nM
N#CCC(=O)N1CC(n2cnc3cnc4[nH]ccc4c32)C1 [Example 38, 3-Oxo-3-[3-(6H-1,3,5,6-tetraaza-as-indacen-1-yl)-azetidin-1-yl]propionitrile] | 713 nM | 315 nM | 1970 nM | 412 nM
c1cncc(CN2CCC[C@@H](n3cnc4cnc5[nH]ccc5c43)C2)c1 [Example 39, 1-((R)-1-Pyridin-3-ylmethyl-piperidin-3-yl)-1,6-dihydro-1,3,5,6-tetraaza-as-indacene] | 182 nM | 102 nM | 330 nM | 35.9 nM
c1coc(CN2CCC[C@@H](n3cnc4cnc5[nH]ccc5c43)C2)n1 [Example 43, 1-((R)-1-Oxazol-2-ylmethyl-piperidin-3-yl)-1,6-dihydro-1,3,5,6-tetraaza-as-indacene] | 177 nM | 72.9 nM | 204 nM | 43.1 nM
Cn1ccnc1CN1CCC[C@@H](n2cnc3cnc4[nH]ccc4c32)C1 [Example 44, 1-[(R)-1-(1-Methyl-1H-imidazol-2-ylmethyl)-piperidin-3-yl]-1,6-dihdyro-1,3,5,6-tetraaza-as-indacene] | 241 nM | 121 nM | 423 nM | 105 nM
COc1ccc(CN2CCC[C@@H](n3cnc4cnc5[nH]ccc5c43)C2)cc1 [Example 46, 1-[(R)-1-(4-Methoxy-benzyl)-piperidin-3-yl]-1,6-dihydro-1,3,5,6-tetraaza-as-indacene] | 414 nM | 160 nM | 913 nM | 72.4 nM
N#Cc1ccc(S(=O)(=O)N2CCC(n3cnc4cnc5[nH]ccc5c43)CC2)cc1 [Example 56, 4-[4-(6H-1,3,5,6-Tetraaza-as-indacen-1-yl)-piperidine-1-sulfonyl]benzonitrile] | 337 nM | 9.97 nM | 64.7 nM | 3.84 nM
CN(C)C(=O)CN1CCC[C@@H](n2cnc3cnc4[nH]ccc4c32)C1 [Example 60, N,N-Dimethyl-2-[(R)-3-(6H-1,3,5,6-tetraaza-as-indacen-1-yl)-piperidin-1-yl]acetamide] | 625 nM | 201 nM | 715 nM | 135 nM
COCCN1CCC[C@@H](n2cnc3cnc4[nH]ccc4c32)C1 [Example 61, 1-[(R)-1-(2-Methoxy-ethyl)-piperidin-3-yl]-1,6-dihydro-1,3,5,6-tetraaza-as-indacene] | 220 nM | 253 nM | 1050 nM | 153 nM
CN(C)C(=O)CN1CCC(n2cnc3cnc4[nH]ccc4c32)CC1 [Example 62, N,N-Dimethyl-2-[4-(6H-1,3,5,6-tetraaza-as-indacen-1-yl)-piperidin-1-yl]acetamide] | 391 nM | 39.7 nM | 225 nM | 21.4 nM
c1cnc(N2CCC(n3cnc4cnc5[nH]ccc5c43)CC2)nc1 [Example 64, 1-(1-Pyrimidin-2-yl-piperidin-4-yl)-1,6-dihydro-1,3,5,6-tetraaza-as-indacene] | 243 nM | 51.4 nM | 495 nM | 36.4 nM
c1cc(N2CCC(n3cnc4cnc5[nH]ccc5c43)CC2)ncn1 [Example 65, 1-(1-Pyrimidin-4-yl-piperidin-4-yl)-1,6-dihydro-1,3,5,6-tetraaza-as-indacene] | 281 nM | 34.6 nM | 107 nM | 14.9 nM
Cn1cc(CN2CCC(n3cnc4cnc5[nH]ccc5c43)CC2)cn1 [Example 68] | 354 nM | 70.7 nM | 1160 nM | 21 nM
c1cc2c(ncc3ncn([C@@H]4CCCN(C5COC5)C4)c32)[nH]1 [Example 71, (R)-1-(1-Oxetan-3-yl-piperidin-3-yl]-1,6-dihydro-1,3,5,6-tetraaza-as-indacene] | 307 nM | 378 nM | 1680 nM | 264 nM

Stronger by Ki (JAK3), values ahead:

Ki (JAK3) | Ki (JAK2) | Ki (TYK2) | Ki (JAK1) | SMILES
144 nM | 44.2 nM | 198 nM | 11.3 nM | N#CCC(=O)N1CC[C@@H](n2cnc3cnc4[nH]ccc4c32)C1 [Example 37, 3-Oxo-3-[(R)-3-(6H-1,3,5,6-tetraaza-as-indacen-1-yl)-pyrrolidin-1-yl]propionitrile]
66.9 nM | 17.8 nM | 107 nM | 6.35 nM | N#Cc1ccc(CN2CCC[C@@H](n3cnc4cnc5[nH]ccc5c43)C2)cc1 [Example 40, 4-[(R)-3-(6H-1,3,5,6-Tetraaza-as-indacen-1-yl)-piperidin-1-ylmethyl]benzonitrile]
153 nM | 48.9 nM | 159 nM | 34.4 nM | N#Cc1ccccc1CN1CCC[C@@H](n2cnc3cnc4[nH]ccc4c32)C1 [Example 41, 2-[(R)-3-(6H-1,3,5,6-Tetraaza-as-indacen-1-yl)-piperidin-1-ylmethyl]benzonitrile]
93 nM | 41 nM | 122 nM | 14.9 nM | c1ncc(CN2CCC[C@@H](n3cnc4cnc5[nH]ccc5c43)C2)cn1 [Example 42, 1-((R)-1-Pyrimidin-5-ylmethyl-piperidin-3-yl)-1,6-dihydro-1,3,5,6-tetraaza-as-indacene]
27.5 nM | 18 nM | 129 nM | 7.58 nM | N#Cc1cccc(CN2CCC[C@@H](n3cnc4cnc5[nH]ccc5c43)C2)c1 [Example 45, 3-[(R)-3-(6H-1,3,5,6-Tetraaza-as-indacen-1-yl)-piperidin-1-ylmethyl]benzonitrile]
52.2 nM | 28.9 nM | 101 nM | 13.1 nM | Fc1cccc(CN2CCC[C@@H](n3cnc4cnc5[nH]ccc5c43)C2)c1 [Example 47, 1-[(R)-1-(3-Fluoro-benzyl)-piperidin-3-yl]-1,6-dihydro-1,3,5,6-tetraaza-as-indacene]
8.57 nM | 2.67 nM | 30.9 nM | 1.3 nM | N#Cc1ccc(CN2CCC(n3cnc4cnc5[nH]ccc5c43)CC2)cc1 [Example 48, 4-[4-(6H-1,3,5,6-Tetraaza-as-indacen-1-yl)-piperidin-1-ylmethyl]benzonitrile]
26.5 nM | 0.98 nM | 35.7 nM | 0.3 nM | N#Cc1cccc(CN2CCC(n3cnc4cnc5[nH]ccc5c43)CC2)c1 [Example 49, 3-[4-(6H-1,3,5,6-Tetraaza-as-indacen-1-yl)-piperidin-1-ylmethyl]benzonitrile]
18 nM | 4.84 nM | 88.8 nM | 2.48 nM | c1cncc(CN2CCC(n3cnc4cnc5[nH]ccc5c43)CC2)c1 [Example 50, 1-(1-Pyridin-3-ylmethyl-piperidin-4-yl)-1,6-dihydro-1,3,5,6-tetraaza-as-indacene]
137 nM | 6.69 nM | 76.6 nM | 7.68 nM | CC(c1ccccc1)N1CCC(n2cnc3cnc4[nH]ccc4c32)CC1 (stereo not shown) [Example 51, 1-[1-(1-Phenyl-ethyl)-piperidin-4-yl]-1,6-dihydro-1,3,5,6-tetraaza-as-indacene]
12 nM | 9.05 nM | 45.8 nM | 5.21 nM | CS(=O)(=O)CCN1CCC[C@@H](n2cnc3cnc4[nH]ccc4c32)C1 [Example 57, 1-[(R)-1-(2-Methanesulfonyl-ethyl)-piperidin-3-yl]-1,6-dihydro-1,3,5,6-tetraaza-as-indacene]
27.7 nM | 6.01 nM | 30.5 nM | 1.96 nM | CS(=O)(=O)CCN1CCC(n2cnc3cnc4[nH]ccc4c32)CC1 [Example 59, 1-[1-(2-Methanesulfonyl-ethyl)-piperidin-4-yl]-1,6-dihydro-1,3,5,6-tetraaza-as-indacene]
96.5 nM | 12 nM | 73.9 nM | 7.54 nM | COCCN1CCC(n2cnc3cnc4[nH]ccc4c32)CC1 [Example 63, 1-[1-(2-Methoxy-ethyl)-piperidin-4-yl]-1,6-dihydro-1,3,5,6-tetraaza-as-indacene]
68.3 nM | 9.86 nM | 240 nM | 7.15 nM | c1ccc(CN2CCC(n3nnc4cnc5[nH]ccc5c43)CC2)cc1 [Example 66, 1-(1-Benzyl-piperidin-4-yl)-1,6-dihydro-1,2,3,5,6-pentaaza-as-indacene]
9.48 nM | 1.16 nM | 23.6 nM | 0.75 nM | Fc1cccc(CN2CCC(n3cnc4cnc5[nH]ccc5c43)CC2)c1 [Example 67, 1-[1-(3-Fluoro-benzyl)-piperidin-4-yl]-1,6-dihydro-1,3,5,6-tetraaza-as-indacene]
93.3 nM | 4.41 nM | 26.6 nM | 3.44 nM | O=S(=O)(C1CC1)N1CCC(n2cnc3cnc4[nH]ccc4c32)CC1 [Example 69, 1-(1-Cyclopropanesulfonyl-piperidin-4-yl]-1,6-dihydro-1,3,5,6-tetraaza-as-indacene]
38.6 nM | 15.1 nM | 68.9 nM | 12.5 nM | O=S(=O)(C1CC1)N1CCC[C@@H](n2cnc3cnc4[nH]ccc4c32)C1 [Example 70, (R)-1-(1-Cyclopropanesulfonyl-piperidin-3-yl]-1,6-dihydro-1,3,5,6-tetraaza-as-indacene]
